Measured values: PubChem BioAssay (NCI)
Values joined by “and” are separate entries in the source; they are usually repeats but may differ in a detail not shown here. Equal values may be shown once.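 All cell lines were grown in 96-well plates and treated with compound for 48 hours. GI50 is the concentration that inhibits growth by half. At the TGI there is no net growth.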

Key:
Test in all cases: inhibition of tumour cell growth, NCI panel, 48 h
ACHN renal = tested on: ACHN renal
CCRF-CEM leukemia = tested on: CCRF-CEM leukemia
DU-145 prostate = tested on: DU-145 prostate
MOLT-4 leukemia = tested on: MOLT-4 leukemia
NCI-H460 lung = tested on: NCI-H460 lung
OVCAR-4 ovarian = tested on: OVCAR-4 ovarian
SNB-75 CNS = tested on: SNB-75 CNS
TK-10 renal = tested on: TK-10 renal

Compound	TGI (ACHN renal)	TGI (CCRF-CEM leukemia)	TGI (DU-145 prostate)	TGI (MOLT-4 leukemia)	TGI (NCI-H460 lung)	TGI (OVCAR-4 ovarian)	TGI (SNB-75 CNS) [µM]	TGI (TK-10 renal)	GI50 (CCRF-CEM leukemia) [µM]	GI50 (DU-145 prostate) [µM]	GI50 (MOLT-4 leukemia) [µM]	GI50 (NCI-H460 lung) [µM]	GI50 (OVCAR-4 ovarian) [µM]	GI50 (TK-10 renal)	GI50 (ACHN renal) [µM]	GI50 (SNB-75 CNS) [µM]
CCO/C=C1\SC(=S)N(c2ccc(OCC)cc2)C1=O	> 100 µM	> 100 µM	> 100 µM	> 100 µM	> 100 µM	> 100 µM	> 100	> 100 µM								
COc1ccc(Nc2cnc3cc(N)cc(N)c3n2)cc1		89.7 µM	> 100 µM	> 100 µM	53.5 µM	48.5 µM		76.2 µM	14.8	30.4	12.5	21.9	21.4	23.7 µM		
O=C1c2ccccc2C(=O)c2c(NC3CCCCC3)ccc(Nc3ccc(S(=O)(=O)O)cc3)c21	> 100 µM	> 100 µM	> 100 µM	> 100 µM	> 100 µM	> 100 µM	> 100	> 100 µM								
O=C(COc1ccc(/C=C2\Oc3ccccc3C2=O)cc1)Nc1nc2ccccc2s1	> 100 µM	0.332 µM	> 100 µM		> 100 µM	> 100 µM	> 45.5	> 100 µM	0.17	5.59		43.8	21.2	> 84.8 µM	28.9	1.99
Nc1nccc(-c2c(-c3ccc(F)cc3)nn3cc(C(F)(F)F)ccc23)n1	> 25 µM	> 25 µM	> 25 µM	> 25 µM	> 25 µM	> 25 µM	> 25	> 25 µM	> 25	> 25	> 25	> 25	> 25	> 25 µM	> 25	> 19.7
COc1cc(C(=O)/C=C/c2cccc(Nc3ccnc4cc(Cl)ccc34)c2)cc(OC)c1OC	2.49 µM			6.46 µM	4.49 µM	2.57 µM	3.64	2.97 µM			1.79	1.91	1.26	1.45 µM	1.24	1.31
CCCCCCCCCCCCCCNC(=O)Nc1ccc(Cl)c(Cl)c1	> 100 µM	11.1 µM	> 100 µM	> 25.1 µM	> 100 µM	> 100 µM	9.57	7.4 µM	2.5	3.59	1.6	3.4	2.79	2.34 µM	3.17	1.98
CCCCCCCCCCCC[C@@H](O)[C@H]1CC[C@H]([C@H](O)CC[C@H](O)[C@@H]2CC[C@@H](CCCCCCCC3=C[C@H](C)OC3=O)O2)O1	> 50 µM	> 50 µM	> 50 µM	> 50 µM	> 50 µM	> 50 µM	> 50	> 50 µM	1.22	> 50	2.55	> 50		1.24 µM	2.51	
C=C(CN1CCc2[nH]c3ccc(F)cc3c2C1)c1ccc(C(=O)Nc2ccccc2N)cc1	11.4 µM	11.9 µM	3.94 µM	6.56 µM	17.2 µM		7.4	16.2 µM	2.52	1.66	1.92	3.98		2.58 µM	3.33	2.14
CCC(c1ccccc1)c1noc(CCN(CC)CC)n1 (stereo not given)	31.3 µM	> 86.3 µM	> 64.3 µM	> 100 µM	> 87.8 µM	40.7 µM	> 100	> 100 µM	28.5	22.7	40.9	> 52.3	16.4	42.8 µM	16.1	21.7
COc1ccc(-c2[nH]c3ccc(OC)cc3c2C=C(C#N)C#N)cc1	> 100 µM	> 100 µM	> 100 µM	> 100 µM	> 100 µM	> 100 µM	97.7	> 100 µM	> 100	0.752		0.463	> 100	> 100 µM	> 100	0.551
CC(=O)O[C@H]1CC2C(C3CC[C@H](C(C)CCC(=O)O)[C@]31C)[C@H](OC(C)=O)C[C@@H]1CC3(CC[C@]21C)OOC1(CCC(C)CC1)OO3 (stereo not given in full)	15.8 µM and 9.72 µM	5.26 µM and 4.09 µM	18 µM and 13.5 µM	10.6 µM and 3.79 µM	16.7 µM and 7.64 µM	12.2 µM and 5.77 µM	6.81	33 µM and 9.19 µM						18.6 µM and 3.08 µM		
COc1ccc(/C=C2\CCC/C(=C\c3ccc(OC)c(OC)c3)C2=O)cc1OC	> 32.5 µM	> 32.5 µM	9.89 µM	> 32.5 µM	> 32.5 µM	> 32.5 µM	12.8	7.33 µM	1.49	1.28	4.74	1.61	3.28	1.4 µM	5.04	1.29
S=C1SCN(Cc2ccccc2)CN1Cc1ccco1	17.3 µM	18.5 µM	9.61 µM	76 µM	22.3 µM		21.9	18.8 µM	2.75	2.85	5.91	5.25		5.79 µM	4.97	4.09
CCCCCC(=O)O[C@]1(C(C)=O)CCC2C3CCC4=CC(=O)CC[C@]4(C)C3CC[C@@]21C (stereo not given in full)	11.6 µM	5.83 µM	13.4 µM	5.17 µM	8.59 µM	11.6 µM	12.6	> 23.7 µM	2.3	3.56	2.21	2.31	2.03	3.46 µM	3	2.15
COc1ccc(C(O)c2cc3c(N)c(C(=O)Nc4cccc5ccccc45)sc3nc2C)cc1 (stereo not given)	> 55.6 µM	> 100 µM	3.12 µM	> 33.2 µM	5.93 µM	> 100 µM	> 100	> 100 µM	0.378	0.348	0.399	0.332	1.58		0.55	0.39
